Assay results: patent US20090220626A1 (priority 2005, published 2009)

Biological target: T1, human recombinant CYP2A6 (Homo sapiens, UniProt P11509)
T1 construct: purchased
T1 sequence (P11509 1-494): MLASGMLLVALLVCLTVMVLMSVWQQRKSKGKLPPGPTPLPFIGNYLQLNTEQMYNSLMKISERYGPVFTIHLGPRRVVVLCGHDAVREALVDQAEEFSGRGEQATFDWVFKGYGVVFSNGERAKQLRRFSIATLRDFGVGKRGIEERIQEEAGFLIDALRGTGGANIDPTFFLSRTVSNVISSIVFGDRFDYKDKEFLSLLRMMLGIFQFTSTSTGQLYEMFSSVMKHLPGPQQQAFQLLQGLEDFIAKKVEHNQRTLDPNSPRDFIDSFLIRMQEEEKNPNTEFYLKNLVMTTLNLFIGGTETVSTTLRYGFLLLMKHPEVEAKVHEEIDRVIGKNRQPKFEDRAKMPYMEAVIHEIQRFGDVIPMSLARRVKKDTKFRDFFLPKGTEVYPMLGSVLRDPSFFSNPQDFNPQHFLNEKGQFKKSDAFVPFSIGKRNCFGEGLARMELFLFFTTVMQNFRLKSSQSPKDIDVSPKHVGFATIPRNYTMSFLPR
Assay: Inhibition of nicotine metabolism in CYP2A6 Supersomes
Type: biochemical
Details: 0, 1 and 100 μM; nicotine 100 μM, 15 minutes at 37° C.
Procedure: Samples containing 0, 5, 50, or 500 μM of GSE or Capsule were prepared as described in Example 4. Each sample was incubated with CYP2A6 Supersomes (human recombinant CYP2A6 in an artificial system comprising requisite factors for sample stability and function), with 20 pmol/ml nicotine at 100 μM, for 15 minutes at 37° C.
Sample containing 0, 1 and 100 μM of cytisine, a nicotine agonist, were prepared by extraction in ddH2O pH 4.1, for 2 hours at room temperature with continuous vortexing. The extraction was done at a concentration of 47 mg/ml. The samples were incubated with CYP2A6 Supersomes with 20 pmmol/ml of nicotine at 100 μM for 15 minutes at 37° C.

With `O=c1cccc2n1C[C@@H]1CNC[C@H]2C1` [cytisine] the “inhibitory effect in CYP2A6 Supersomes (FIG. 7)” value was “does not have an inhibitory effect”.
